Tests used:
MRJP3 = assay: Ratio of 68 to 64 kDa MRJP3 protein in royal jelly (SDS-PAGE); type: in vivo, Apis mellifera
Procedure: Beehives with the similar expression level of MRJP3 protein were selected for use, and two beehives were tested in each control or experimental group. On the first day, the honey originally contained in the beehives was removed by shaking, and the bees (Apis mellifera) were fed sugar water twice (normal sugar water for the control group and special sugar water for the experimental group) for two days. The special sugar water was a 10-fold dilution of the formulated sugar powder in water. On the third day, 1.5-day old larvae (which were the offspring of the same queen) were inserted into the beehives, and the bees were fed once (normal sugar water for the control group and special sugar water for the experimental group). After 24, 48, and 72 hrs, 20 larvae and the royal jelly in the cells of said 20 larvae were collected for qualitative, quantitative, and proteomic analyses.
For qualitative analysis, royal jelly and sterilized water at a weight ratio of 1:10 was mixed for extraction. A particular amount of the proteins in the aqueous layer were removed for determination of protein concentration by Bradford dye-binding method (Bio-Rad protein assay, Bio-Rad Laboratories, Inc.). The absorption at 595 nm of the protein samples was determined by Elisa Reader (Bio-TEK). […]

larvae of the queen bee = assay: Growth (weight) of larvae of the queen bee fed royal jelly secreted by young worker bees fed the test substance in sugar water; type: in vivo, Apis mellifera

SMILES: CC(C)=CCC/C(C)=C/Cc1c(O)cc2c(c1O)C(=O)C[C@@H](c1ccc(O)c(O)c1)O2 [Propolin C, propolin C]
- protein components of the royal jelly secreted by young worker bees (MRJP3; 50 to 100 mg/kg): significantly changed
- larva weight increase (larvae of the queen bee; Example 4, 100 mg/kg, period of 48 to 72 hours, control around 3.58 fold): around 6.30 fold
- Average weight of each larva (larvae of the queen bee; Table 5, 50 mg/kg, 24 h, control 3.52): 2.40 mg
- Average weight of each larva (larvae of the queen bee; Table 5, 50 mg/kg, 48 h, control 13.45): 15.2 mg
- Average weight of each larva (larvae of the queen bee; Table 5, 50 mg/kg, 72 h, control 61.60): 70.17 mg
- Average weight of each larva (larvae of the queen bee; Table 5, 100 mg/kg, 24 h, control 3.52): 2.38 mg
- Average weight of each larva (larvae of the queen bee; Table 5, 100 mg/kg, 48 h, control 13.45): 13.48 mg
- Average weight of each larva (larvae of the queen bee; Table 5, 100 mg/kg, 72 h, control 61.60): 98.48 mg

SMILES: O=C(CCCCCCC(=O)Nc1ccccc1)NO [SAHA, suberoylanilide hydroxamide acid, reference compound]
- ratio of the protein components of the royal jelly secreted by young worker bees (MRJP3; 5 to 15 mg/kg): significantly changed
- Average weight of each larva (larvae of the queen bee; Table 8, 5 mg/kg, 24 h, control 1.9): 4.0 mg
- Average weight of each larva (larvae of the queen bee; Table 8, 5 mg/kg, 48 h, control 13.3): 28.2 mg
- Average weight of each larva (larvae of the queen bee; Table 8, 5 mg/kg, 72 h, control 38.4): 149.3 mg
- Average weight of each larva (larvae of the queen bee; Table 8, 15 mg/kg, 24 h, control 1.9): 7.3 mg
- Average weight of each larva (larvae of the queen bee; Table 8, 15 mg/kg, 48 h, control 13.3): 41.0 mg
- Average weight of each larva (larvae of the queen bee; Table 8, 15 mg/kg, 72 h, control 38.4): 149.2 mg

SMILES: CC(C)=CCC/C(C)=C/Cc1c([C@@H]2CC(=O)c3c(cc(O)c(CC=C(C)C)c3O)O2)ccc(O)c1O [Propolin G, propolin G]
- larva weight increase (larvae of the queen bee; Example 5, 300 mg/kg, period of 24 to 48 hours, control around 1.60 fold): around 5.05 fold
- larva weight increase (larvae of the queen bee; Example 5, 300 mg/kg, period of 48 to 72 hours, control around 1.22 fold): around 5.79 fold
- Average weight of each larva (larvae of the queen bee; Table 6, 150 mg/kg, 24 h, control 5.23): 5.73 mg
- Average weight of each larva (larvae of the queen bee; Table 6, 150 mg/kg, 48 h, control 13.57): 54.2 mg
- Average weight of each larva (larvae of the queen bee; Table 6, 150 mg/kg, 72 h, control 30.07): 156.63 mg
- Average weight of each larva (larvae of the queen bee; Table 6, 300 mg/kg, 24 h, control 5.23): 3.93 mg
- Average weight of each larva (larvae of the queen bee; Table 6, 300 mg/kg, 48 h, control 13.57): 23.80 mg
- Average weight of each larva (larvae of the queen bee; Table 6, 300 mg/kg, 72 h, control 30.07): 161.73 mg
- Average weight of each larva (larvae of the queen bee; Table 6, 600 mg/kg, 24 h, control 5.23): 2.70 mg
- Average weight of each larva (larvae of the queen bee; Table 6, 600 mg/kg, 48 h, control 13.57): 13.67 mg
- Average weight of each larva (larvae of the queen bee; Table 6, 600 mg/kg, 72 h, control 30.07): 85.67 mg
- Average weight of each larva (larvae of the queen bee; Table 8, positive control 150 mg/kg, 24 h, control 1.9): 3.6 mg
- Average weight of each larva (larvae of the queen bee; Table 8, positive control 150 mg/kg, 48 h, control 13.3): 41.2 mg
- Average weight of each larva (larvae of the queen bee; Table 8, positive control 150 mg/kg, 72 h, control 38.4): 178.6 mg
